Measured values published in US8101211B2, “Compositions for retarding skin aging” (Kabushiki Kaisha Yakult Honsha, priority 2000, dated 2012).
Values after ≈ are worked out from the molar mass of the structure shown.

What was measured:
[1] = system: B16 mouse melanoma cells (B16-F1 cells, ATCC No. CRL-6323); assay: Melanin formation-inhibiting test (extracellular melanin, 96-well plate method); assay type: cell-based; settings: for IC50: Mus musculus, extracellular melanin, B16-F1 cells, read-out: Melanin formation inhibition IC50; for Melanin formation inhibition, % Inhibition at 0.001%: test concentration 0.001%, 3 days, theophylline 0.5 mM
Method: Measurements were made by the 96-well plate method using […] mouse melanoma cells (B16-F1 cells, ATCC No. CRL-6323) purchased from Dainippon Pharmaceutical. The cells (1×10^4) were sowed into each well and cultured in 10% FCS- and 1% antibiotic-containing D-MEM for 24 hours (37° C., 5% CO2), the medium was then replaced with D-MEM supplemented with the test substance and theophylline (0.5 mM), and cultivation was further continued for 3 days. The solvent (ethanol) for the test substance was added to the medium in a final concentration of 1%. An equal volume of HEPES buffer (pH 6.8)/ethanol (9:1) was added to the culture supernatant obtained by centrifugation and the absorbance at 475 nm to 660 nm was measured on the microplate reader EL-340 (BIO-TEK INSTRUMENT), and the melanin formation-inhibiting activity was evaluated in terms of the amount of extracellular melanin.

[2] = DPPH radical-capturing activity; settings: concentration at which DPPH radical scavenging is 50%
Text: [table] […] The extent of activity was expressed in terms of DPPH Radial Scavenging (%) calculated according to the following formula: DPPH Radial Scavenging (%)=(A−B)/A×100 where A: absorbance without addition of sample, B: absorbance with addition of sample. […]

SMILES	IC50 [1]	Melanin formation inhibition, % Inhibition at 0.001% [1]	DPPH radical scavenging IC50 [2]
OC[C@H]1O[C@@H](Oc2ccc(O)cc2)[C@H](O)[C@@H](O)[C@@H]1O [Arbutin]	12.1 µg/mL (≈ 44.4 µM)	32.4%	–
O=C1O[C@H]([C@@H](O)CO)C(O)=C1O [Ascorbic acid]	–	–	4.1 µg/mL
N[C@@H](CCC(=O)N[C@@H](CS)C(=O)NCC(=O)O)C(=O)O [Glutathione]	–	–	13.5 µg/mL
O=c1cc(CO)occ1O [Kojic acid]	12.9 µg/mL (≈ 90.8 µM)	25.7%	–
